From ChEMBL document CHEMBL3301361, “Experimental in vitro DMPK and physicochemical data on a set of publicly disclosed compounds” come the findings set out here.

SMILES strings stand for the structures. ≈ marks a conversion by molar mass, not a printed value.

Data set [1] can be described thus: physchem. Particulars: pH 7.4 buffer.
Data set [2] is described as follows: physchem. Particulars: octan-1-ol/water, pH 7.4, LogD7.4.

As usually defined, the thermodynamic solubility is the concentration in solution at equilibrium with solid. What is called logD is the decadic logarithm of the distribution of all forms, ionised or not, between an organic phase and buffer at a given pH. Read a low logD as lower lipophilicity.

In turn, `CS(=O)(=O)c1cccc(Nc2nccc(Nc3cccc4c3OCC4)n2)c1` displayed a thermodynamic solubility in “physchem [1]” of 44.7 µM (≈ 17.1 µg/mL). In “physchem [2]”, the logD came to 3.
In turn, `c1cc(Nc2ccnc(Nc3cc(N4CCOCC4)cc(N4CCOCC4)c3)n2)c2cn[nH]c2c1` had a thermodynamic solubility in “physchem [1]” of 2.5 µM (≈ 1.18 µg/mL). In the data set “physchem [2]”, this molecule showed a pH-dependent lipophilicity (logD) of 3.05.
Taken in the same sequence, the figures for `Cc1cccc(NS(=O)(=O)c2cccc3nonc23)c1` were 81.3 µM (≈ 23.5 µg/mL) and 3.
Molecule `O=C(/C=C/Sc1nc[nH]n1)c1ccc(Cl)cc1` yielded a thermodynamic solubility in “physchem [1]” of 35.5 µM (≈ 9.43 µg/mL). Moreover, the logD in the data set “physchem [2]” is 3.1.
On the same counts, the results for `OCCNCc1cc(Br)ccc1OCc1ccc(Cl)cc1` are 229 µM (≈ 84.9 µg/mL) and 2.98.
In the case of `COc1cc(CO)cc(N(C)c2ccnc(Nc3cc(N4CCOCC4)cc(N4CCOCC4)c3)n2)c1`, in the data set “physchem [1]”, the solubility (thermodynamic) worked out at 195 µM (≈ 98.8 µg/mL). The logD in “physchem [2]” amounted to 3.
In “physchem [1]”, `Cc1ccc(CO)cc1N(C)c1ccnc(Nc2cc(CN3CCOCC3)cc(N3CCOCC3)c2)n1` yielded a solubility (thermodynamic) of 372 µM (≈ 187 µg/mL). The logD in the data set “physchem [2]” stood at 3.
Taken in the same sequence, the figures for `CC(C)OC(=O)N1CCC(Oc2ncnc3c2cnn3-c2ccc(S(C)(=O)=O)cc2F)CC1` were 2.1 µM (≈ 1 µg/mL) and 3.
Taken in the same sequence, the figures for `O=C(Nc1cccc(O)c1)c1ccc(OCCCN2CCCC2)cc1OCc1ccccc1` were 6.6 µM (≈ 2.95 µg/mL) and 3.07.
In the case of `Cc1ccc(NC(=O)c2ccnc(N3CCOCC3)c2)cc1Nc1ccnc(Cl)n1`, the solubility (thermodynamic) in the data set “physchem [1]” was 15.1 µM (≈ 6.42 µg/mL). In addition, the logD in “physchem [2]” is 3.1.
Taken in the same sequence, the figures for `O=C(NC1CCCCC1)c1cccnc1Sc1ccccc1` were 22.9 µM (≈ 7.15 µg/mL) and 3.01.
On the same counts, the results for `COc1cc2c(Nc3ccc(Br)cc3F)ncnc2cc1OC[C@@H]1CCCN(C)C1` are 170 µM (≈ 80.7 µg/mL) and 3.05.
Taken in the same sequence, the figures for `O=C(Nc1ccc(Oc2cccnc2)nc1)c1nnc(Nc2ccccc2F)o1` were 77.6 µM (≈ 30.4 µg/mL) and 3.1.
Molecule `O=C(Nc1ccc(N2CCOCC2)nc1)c1nnc(Nc2ccc(F)cc2)o1` displayed a solubility (thermodynamic) in the data set “physchem [1]” of 2.6 µM (≈ 0.999 µg/mL). In addition, in the data set “physchem [2]”, the logD amounted to 3.
On the same counts, the results for `O=C(Nc1ccc(N2CCOCC2)nc1)c1nnc(Nc2cccc(OCc3ccccn3)c2)o1` are 6.3 µM (≈ 2.98 µg/mL) and 3.1.
On the same counts, the results for `COc1cc2ncnc(Nc3cccc(Cl)c3F)c2cc1CN1C[C@H](OC)C[C@@H]1C(N)=O` are 436 µM (≈ 201 µg/mL) and 3.09.
The molecule `COCCCc1cc(Nc2nc(NCc3cc(C)no3)ncc2Br)[nH]n1` showed a solubility (thermodynamic) in the data set “physchem [1]” of 120 µM (≈ 50.8 µg/mL). The same molecule yielded a logD in “physchem [2]” of 3.07.
As for `COc1cc(CCc2cc(Nc3ccnc(NCc4cc(C)no4)n3)n[nH]2)cc(OC)c1`, the thermodynamic solubility in “physchem [1]” was determined as 0.6 µM (≈ 0.261 µg/mL). The logD in the data set “physchem [2]” was 3.1.
`CC[C@@H]1COCCN1c1cc(C2(S(C)(=O)=O)CC2)nc(-c2cccc3[nH]ccc23)n1`: the solubility (thermodynamic) in “physchem [1]” was 79.4 µM (≈ 33.9 µg/mL). Also, the logD in “physchem [2]” turned out to be 3.
On the same counts, the results for `COc1cc(Nc2cc(Nc3c(Cl)ccc4c3OCO4)ncn2)cc(OC)c1OC` are 2.5 µM (≈ 1.08 µg/mL) and 3.07.
In turn, `CN(C)C(=O)[C@H](Cc1ccccc1)NC(=O)c1cc2sccc2[nH]1` came in with a thermodynamic solubility in the data set “physchem [1]” of 17 µM (≈ 5.8 µg/mL). This molecule also displayed a logD in the data set “physchem [2]” of 3.1.
On the same counts, the results for `COc1cc(OC2CCN(C)CC2)c2c(Nc3cccc4c3OCO4)ncnc2c1` are 91.2 µM (≈ 37.3 µg/mL) and 3.02.
On the same counts, the results for `CC(=O)N1CCN(CCOc2cc(OC(C)C)c3c(Nc4c(F)ccc5c4OCO5)ncnc3c2)CC1` are 27.5 µM (≈ 14.1 µg/mL) and 3.06.
Take `COc1cc(Nc2ncnc(Nc3c(Cl)ccc4c3OCO4)n2)cc(OC)c1OC`: the solubility (thermodynamic) in the data set “physchem [1]” came out at 6.2 µM (≈ 2.68 µg/mL). The molecule also had a logD in “physchem [2]” of 3.01.
On the same counts, the results for `CSc1nc(N)nc(-c2ccccc2)n1` are 24 µM (≈ 5.24 µg/mL) and 2.98.
On the same counts, the results for `Cc1cccc(C[C@H](NC(=O)c2cc(C(C)(C)C)nn2C)C(=O)NCC#N)c1` are 63.1 µM (≈ 24.1 µg/mL) and 3.1.
